Key:
Test in all cases: relative viability (nuclei count vs DMSO), 5 days (fraction); higher = more cells survive
BI-2536 + Dasatinib = compound: CC[C@@H]1C(=O)N(C)c2cnc(Nc3ccc(C(=O)NC4CCN(C)CC4)cc3OC)nc2N1C1CCCC1 [BI-2536] + Cc1nc(Nc2ncc(C(=O)Nc3c(C)cccc3Cl)s2)cc(N2CCN(CCO)CC2)n1 [Dasatinib] (partner 0.075 µM)
Method in brief: (§1)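 Values are medians from duplicate plates. Each reflects relative viability, defined as the nuclei count of treated wells over that of vehicle wells. Lung cancer cell lines in 1536-well plates were pin-tool dosed one day after seeding with one drug alone or with a fixed anchor-drug dose plus five library-drug doses (not always all listed) in √10 steps, then fixed, stained and imaged at 4× after 5 days.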

BI-2536 + Luminespib = compound: CC[C@@H]1C(=O)N(C)c2cnc(Nc3ccc(C(=O)NC4CCN(C)CC4)cc3OC)nc2N1C1CCCC1 [BI-2536] + CCNC(=O)c1noc(-c2cc(C(C)C)c(O)cc2O)c1-c1ccc(CN2CCOCC2)cc1 [Luminespib] (partner 0.01 µM)
Method in brief: as §1

[1] = compound: CC1CC(=O)N(C2=CN=C(N=C2N1C3CCCC3)NC4=C(C=C(C=C4)C(=O)NC5CCN(CC5)C)OC)C [NPK76-II-72-1] + CC1(C)CCC(c2ccc(Cl)cc2)=C(CN2CCN(c3ccc(C(=O)NS(=O)(=O)c4ccc(N[C@H](CCN5CCOCC5)CSc5ccccc5)c(S(=O)(=O)C(F)(F)F)c4)cc3)CC2)C1 [Navitoclax] (partner 0.5 µM)
Method in brief: as §1

[2] = compound: CC1CC(=O)N(C2=CN=C(N=C2N1C3CCCC3)NC4=C(C=C(C=C4)C(=O)NC5CCN(CC5)C)OC)C [NPK76-II-72-1] + CS(=O)(=O)CCNCc1ccc(-c2ccc3ncnc(Nc4ccc(OCc5cccc(F)c5)c(Cl)c4)c3c2)o1 [Lapatinib] (partner 2 µM)
Method in brief: as §1

Row | Cell Line | relative viability (BI-2536 + Dasatinib; first compound 0.01 µM) | relative viability (BI-2536 + Dasatinib; first compound 0.03162 µM) | relative viability (BI-2536 + Dasatinib; first compound 0.1 µM) | relative viability (BI-2536 + Dasatinib; first compound 0.3162 µM) | relative viability (BI-2536 + Dasatinib; first compound 1 µM) | relative viability (BI-2536 + Luminespib; first compound 0.01 µM) | relative viability (BI-2536 + Luminespib; first compound 0.03162 µM) | relative viability (BI-2536 + Luminespib; first compound 0.1 µM) | relative viability (BI-2536 + Luminespib; first compound 0.3162 µM) | relative viability (BI-2536 + Luminespib; first compound 1 µM) | relative viability ([1]; first compound 0.01 µM) | relative viability ([1]; first compound 0.03162 µM) | relative viability ([1]; first compound 0.1 µM) | relative viability ([1]; first compound 0.3162 µM) | relative viability ([1]; first compound 1 µM) | relative viability ([2]; first compound 0.01 µM) | relative viability ([2]; first compound 0.03162 µM) | relative viability ([2]; first compound 0.1 µM) | relative viability ([2]; first compound 0.3162 µM) | relative viability ([2]; first compound 1 µM)
1 | NCI-H1975 | 0.374 | 0.334 | 0.194 | 0.0936 | 0.0979 | 0.253 | 0.209 | 0.231 | 0.158 | 0.149 | 0.956 | 1.05 | 1.04 | 0.993 | 1.26 | 0.813 | 0.878 | 0.928 | 0.886 | 0.955
2 | CAL-12T | 0.387 | 0.287 | 0.0978 | 0.121 | 0.0997 | 0.774 | 0.229 | 0.173 | 0.124 | 0.202 | 1.15 | 1.32 | 1.22 | 1.02 | 1.18 | 0.571 | 0.749 | 0.632 |  | 0.777
3 | NCI-H1623 | 0.485 | 0.519 | 0.571 | 0.595 | 0.281 | 0.402 | 0.508 | 0.374 | 0.405 | 0.388 |  |  |  |  |  |  |  |  |  | 
4 | HCC-44 |  |  |  |  |  | 1.03 | 0.261 | 0.204 | 0.104 | 0.12 | 0.997 | 0.969 | 0.915 | 0.919 | 1.11 | 0.983 | 0.991 | 0.935 | 0.937 | 1
5 | NCI-H1703 |  |  |  |  |  |  |  |  |  |  | 0.961 | 1.59 | 1.27 | 1.19 | 1.38 | 1.16 | 1.2 | 1.21 | 1.05 | 1.2
6 | Calu-6 |  |  |  |  |  |  |  |  |  |  | 0.879 | 0.942 | 0.894 | 0.809 | 0.889 | 1.01 | 1.12 | 1.08 | 1.03 | 1.17
7 | EBC-1 |  |  |  |  |  |  |  |  |  |  | 0.35 | 0.36 | 0.376 | 0.417 | 0.485 | 0.193 | 0.182 | 0.218 | 0.229 | 0.218
8 | NCI-H358 | 0.157 | 0.171 | 0.0774 | 0.0602 | 0.0816 | 0.414 | 0.283 | 0.398 | 0.127 | 0.0998 |  |  |  |  |  | 0.444 | 0.443 | 0.549 | 0.453 | 0.477
9 | HCC-78 | 0.454 | 0.374 | 0.416 | 0.25 | 0.17 |  |  |  |  |  |  | 0.846 | 0.719 |  | 0.732 |  | 0.642 | 0.706 |  | 1.01
10 | IA-LM |  |  |  |  |  |  |  |  |  |  | 0.752 | 1.17 | 0.67 | 0.733 | 1 | 0.786 | 0.877 | 0.804 | 0.785 | 1.03
11 | NCI-H650 | 0.44 | 0.511 | 0.3 | 0.158 | 0.0998 | 0.728 | 0.622 | 0.21 | 0.13 | 0.103 |  |  |  |  |  | 1.17 | 0.912 | 0.723 |  | 0.925
12 | ChaGo-K-1 | 0.594 | 0.667 | 0.446 | 0.194 | 0.197 | 0.691 | 0.615 | 0.529 | 0.16 | 0.178 | 0.937 | 0.955 | 1.09 | 0.944 | 0.64 |  |  |  |  | 
13 | NCI-H522 | 0.687 | 0.989 | 0.607 | 0.341 | 0.334 | 1.21 | 1.08 | 1.04 | 0.375 | 0.318 |  |  |  |  |  |  |  |  |  | 
14 | NCI-H1299 |  |  |  |  |  |  |  |  |  |  | 1.04 | 1.05 | 1.01 | 1.03 | 1.04 | 0.949 | 1.01 | 0.957 | 0.961 | 0.954
15 | NCI-H2342 | 0.326 | 0.313 | 0.267 | 0.213 | 0.227 | 0.883 | 0.661 | 0.676 | 0.38 | 0.369 |  |  |  |  |  |  |  |  |  | 
16 | SW 900 | 0.629 | 0.596 | 0.391 | 0.181 | 0.139 | 0.189 | 0.186 | 0.173 | 0.198 | 0.201 |  |  |  |  |  |  |  |  |  | 
17 | HCC-366 | 0.717 | 0.653 | 0.149 | 0.0225 | 0.0238 |  |  |  |  |  | 1.09 | 1.11 | 1.07 | 1.13 | 0.978 | 1.04 | 1.08 | 1.01 | 1.14 | 1.08
18 | A549 |  |  |  |  |  |  |  |  |  |  | 1.17 | 1.29 | 1.22 | 1.12 | 1.15 | 0.881 | 1.11 | 0.963 | 0.869 | 1.07
19 | NCI-H661 | 0.851 | 0.307 |  |  | 0.367 | 0.944 | 0.936 | 0.347 | 0.296 | 0.257 |  |  |  |  |  | 0.398 | 0.532 | 0.562 | 0.473 | 0.513
20 | NCI-H1563 | 0.47 | 0.498 | 0.449 | 0.361 | 0.331 | 0.483 | 0.547 | 0.545 | 0.507 | 0.372 |  |  |  |  |  | 0.976 | 1.03 | 0.946 | 0.942 | 1.02
21 | ABC-1 | 0.519 | 0.634 | 0.211 | 0.31 | 0.231 | 0.54 | 0.293 |  | 0.28 | 0.39 |  |  |  |  |  | 1.02 | 1.19 | 1.18 | 1.08 | 1.31
22 | LCLC-103H | 0.405 | 0.467 | 0.413 | 0.147 | 0.089 | 0.95 | 1.05 | 0.842 | 0.188 | 0.184 |  |  |  |  |  |  |  |  |  | 
23 | NCI-H441 | 0.434 | 0.244 | 0.195 | 0.164 | 0.179 | 0.296 | 0.32 | 0.288 | 0.237 | 0.271 | 0.634 | 0.946 | 0.671 | 0.533 | 0.73 |  |  |  |  | 
